Key:
[1] = log P by HPLC on reversed phase columns (Method L0; [a] acidic, [b] neutral range); settings: for log P: HPLC on reversed phase columns (Method L0), last column of Table 1, column head not shown
C. elegans Slo-1a = C. elegans Slo-1a (Caenorhabditis elegans, UniProt Q95V25); assay: In vitro assay 1: C. elegans Slo-1a, action at a recombinant C. elegans CHO cell line (membrane potential measurement); settings: for pE50: CHO cells expressing C. elegans Slo-1a, voltage sensitive dye, FLIPR Tetra, negative decadic logarithm of EC50
Chain of C. elegans Slo-1a (Q95V25 whole entry): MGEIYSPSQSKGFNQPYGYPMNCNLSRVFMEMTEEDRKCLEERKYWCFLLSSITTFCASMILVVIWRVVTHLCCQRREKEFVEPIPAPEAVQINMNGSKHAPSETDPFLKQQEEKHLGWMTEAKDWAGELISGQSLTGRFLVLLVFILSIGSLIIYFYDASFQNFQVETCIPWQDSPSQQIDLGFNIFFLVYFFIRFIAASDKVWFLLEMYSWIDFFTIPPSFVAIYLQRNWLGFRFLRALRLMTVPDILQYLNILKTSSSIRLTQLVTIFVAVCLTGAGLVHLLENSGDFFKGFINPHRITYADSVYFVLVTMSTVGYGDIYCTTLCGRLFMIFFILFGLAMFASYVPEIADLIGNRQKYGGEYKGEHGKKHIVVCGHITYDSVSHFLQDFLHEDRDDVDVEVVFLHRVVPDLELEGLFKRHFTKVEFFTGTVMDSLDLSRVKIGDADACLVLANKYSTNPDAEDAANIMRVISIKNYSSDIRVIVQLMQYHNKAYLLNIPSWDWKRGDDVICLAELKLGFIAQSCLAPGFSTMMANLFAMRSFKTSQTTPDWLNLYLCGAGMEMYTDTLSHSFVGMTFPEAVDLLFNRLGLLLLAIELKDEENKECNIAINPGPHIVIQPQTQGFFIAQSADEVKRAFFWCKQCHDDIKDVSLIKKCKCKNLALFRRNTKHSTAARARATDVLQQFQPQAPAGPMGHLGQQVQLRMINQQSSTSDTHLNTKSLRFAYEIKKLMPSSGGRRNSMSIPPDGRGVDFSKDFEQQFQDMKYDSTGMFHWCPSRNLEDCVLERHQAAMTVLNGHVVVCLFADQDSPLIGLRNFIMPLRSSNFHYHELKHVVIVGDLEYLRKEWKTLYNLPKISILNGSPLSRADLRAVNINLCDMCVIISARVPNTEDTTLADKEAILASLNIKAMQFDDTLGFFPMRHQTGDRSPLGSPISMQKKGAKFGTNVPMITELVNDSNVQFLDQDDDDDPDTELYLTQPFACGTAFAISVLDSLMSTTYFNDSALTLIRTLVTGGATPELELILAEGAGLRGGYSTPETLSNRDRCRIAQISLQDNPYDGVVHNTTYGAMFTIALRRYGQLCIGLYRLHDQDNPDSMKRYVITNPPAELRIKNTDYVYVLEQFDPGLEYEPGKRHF
Description: In Vitro Assay 1: C. Eleqans Slo-La—Action at a Recombinant C. elegans Cell Line
Cells were cultured at 37° C. and 5% CO2 in MEMalpha with Gutamax I (Invitrogen, Nr.: 32571), supplemented with 10% (v/v) heat inactivated fetal bovine serum (Invitrogen, Nr.: 10500), G418 (1 mg/ml, Invitrogen, Nr.: 10131). Cells were detached using Accutase (Sigma, Nr.: A6964).
Membrane Potential Measurements
Laboratory compound testing was performed on 384-well microtiter plates (MTPs, Greiner, Nr.: 781092). 8000 cells/well were plated onto 384-well MTPs and cultured for 20 to 24 hours at 37° C. and 5% CO2. After removal of the cell culture medium, the cells were washed once with tyrode (150 mM NaCl, 0.3 mM KCl, 2 mM CaCl2, 1 mM MgCl2, 0.8 mM NaH2PO4, 5 mM Glucose, 28 mM Hepes, pH 7.4) and then loaded with the voltage sensitive dye of the Membrane Potential Assay Kit diluted in tyrode for 1 h at room temperature.
After starting the measurement of fluorescence using a FLIPR Tetra (Molecular Devices, Exc. 510-545 nm, Emm. 565-625 nm), test compounds were added followed by the addition of KCl tyrode (final assay concentration: 70 mM KCl, 2 mM CaCl2, 1 mM MgCl2, 0.8 mM NaH2PO4, 5 mM Glucose, 28 mM Hepes, pH 7.4, including the voltage sensitive dye). The measurement was completed after 7 minutes.

[2] = system: Dirofilaria immitis microfilariae; assay: In vitro assay 3: Dirofilaria immitis microfilariae (DIROIM L1), motility; settings: 72 h, reduction of motility vs negative control, 72 h incubation

Compound | chromatographic logP [1] | EC50 (C. elegans Slo-1a) | EC50 [2] | log P [1] | pE50 (C. elegans Slo-1a)
Cc1nn2c(C(C)C)c(C(=O)N[C@H]3CCCc4ccccc43)cnc2c1-c1cccc(C(F)(F)F)c1 [Example 3] | 5.59 | 50.1 nM | < 10 µg/mL | – | –
Cc1c(C(=O)N[C@H]2CCc3ccccc32)cnc2c(-c3ccccc3Cl)c(Cl)nn12 [Example 74] | 3.99 | 39.8 nM | < 1 µg/mL | – | –
Cc1c(C(=O)N[C@H]2CCCc3ccccc32)cnc2c(-c3ccccc3Cl)c(Cl)nn12 [Example 77] | 4.26 | 63.1 nM | < 10 µg/mL | – | –
CC(C)c1c(C(=O)N[C@H]2CCCc3ccccc32)cnc2c(-c3ccccc3Cl)c(Cl)nn12 [Example 78] | 5.07 | 31.6 nM | < 0.1 µg/mL | – | –
Cc1nn2c(C(C)C)c(C(=O)N[C@H]3CCCc4ccccc43)cnc2c1-c1ccccc1F [Example 94] | 4.72 | 15.8 nM | < 0.1 µg/mL | – | –
Cc1nn2c(C(C)C)c(C(=O)N[C@H]3CCCc4ccccc43)cnc2c1-c1ccc(F)c(F)c1 [Example 102] | 5.14 | 63.1 nM | < 10 µg/mL | – | –
Cc1nn2c(C(C)C)c(C(=O)N[C@H]3CCCc4ccccc43)cnc2c1-c1cc(F)ccc1F [Example 115] | 4.89 | 15.8 nM | < 0.1 µg/mL | – | –
Cc1nn2c(C(C)C)c(C(=O)N[C@H]3CCOc4ccccc43)cnc2c1-c1ccc(Cl)cc1 [Example 118] | 4.88 | 15.8 nM | < 0.1 µg/mL | – | –
Cc1nn2c(C(C)C)c(C(=O)N[C@H]3CCc4ccccc43)cnc2c1-c1cc(Cl)c(Cl)c(Cl)c1 [Example 122] | 6.58 | 12.6 nM | < 0.1 µg/mL | – | –
Cc1nn2c(C(C)C)c(C(=O)N[C@H]3CCCc4ccccc43)cnc2c1-c1cc(Cl)c(Cl)c(Cl)c1 [Example 125] | 6.86 | 25.1 nM | < 1 µg/mL | – | –
CC(C)c1c(C(=O)N[C@H]2CCc3ccccc32)cnc2c(-c3c(F)cc(F)cc3F)c(C(F)(F)F)nn12 [Example 133] | 5.01 | 79.4 nM | < 1 µg/mL | – | –
CC(C)c1c(C(=O)N[C@H]2CCc3ccccc32)cnc2c(-c3c(F)cccc3F)c(C(F)(F)F)nn12 [Example 135] | 4.81 | 126 nM | < 0.1 µg/mL | – | –
CC(C)c1c(C(=O)N[C@H]2CCOc3ccccc32)cnc2c(-c3cccc(OC(F)(F)F)c3)c(C(F)(F)F)nn12 [Example 137] | 5.31 | 25.1 nM | < 10 µg/mL | – | –
CC(C)c1c(C(=O)N[C@H]2CCCc3ccccc32)cnc2c(-c3c(F)cccc3F)c(C(F)(F)F)nn12 [Example 138] | 5.06 | 316 nM | < 10 µg/mL | – | –
CC(C)c1c(C(=O)N[C@H]2CCOc3ccccc32)cnc2c(-c3c(F)cccc3F)c(C(F)(F)F)nn12 [Example 139] | 4.56 | 126 nM | < 0.1 µg/mL | – | –
CC(C)c1c(C(=O)N[C@H]2CCOc3ccccc32)cnc2c(-c3c(F)cc(F)cc3F)c(C(F)(F)F)nn12 [Example 140] | 4.77 | 79.4 nM | < 0.1 µg/mL | – | –
COCc1cccc(-c2c(C(F)(F)F)nn3c(C(C)C)c(C(=O)N[C@H]4CCOc5ccccc54)cnc23)c1 [Example 142] | 4.6 | 79.4 nM | < 10 µg/mL | – | –
CC(C)c1c(C(=O)N[C@H]2CCOc3ccccc32)cnc2c(-c3cc(Cl)cc(C(F)(F)F)c3)c(C(F)(F)F)nn12 [Example 143] | 5.78 | 12.6 nM | < 10 µg/mL | – | –

Compound | chromatographic logP [1] | EC50 (C. elegans Slo-1a) | EC50 [2] | log P [1] | pE50 (C. elegans Slo-1a)
COCc1cccc(-c2c(C(F)(F)F)nn3c(C(C)C)c(C(=O)N[C@H]4CCc5ccccc54)cnc23)c1 [Example 144] | 4.87 | 158 nM | < 10 µg/mL | – | –
Cc1nn2c(C(C)C)c(C(=O)N[C@H]3CCCc4ccccc43)cnc2c1-c1cccc(C(F)F)c1 [Example 145] | 4.93 | 31.6 nM | < 10 µg/mL | – | –
Cc1nn2c(C(C)C)c(C(=O)N[C@H]3CCCc4ccccc43)cnc2c1-c1cccc2c1OC(F)(F)O2 [Example 146] | 5.47 | 25.1 nM | < 0.1 µg/mL | – | –
Cc1nn2c(C(C)C)c(C(=O)N[C@H]3CCCc4ccccc43)cnc2c1-c1ccc2c(c1)OC(F)(F)O2 [Example 148] | 5.59 | 39.8 nM | < 10 µg/mL | – | –
CC(C)c1c(C(=O)N[C@H]2CCc3ccccc32)cnc2c(-c3cccc(OC(F)(F)F)c3)c(C(F)(F)F)nn12 [Example 149] | 5.55 | 63.1 nM | < 10 µg/mL | – | –
CC(C)c1c(C(=O)N[C@H]2CCc3ccccc32)cnc2c(-c3cc(Cl)cc(C(F)(F)F)c3)c(C(F)(F)F)nn12 [Example 150] | 6.22 | 50.1 nM | < 10 µg/mL | – | –
Cc1nn2c(C(C)C)c(C(=O)N[C@H]3CCc4ccccc43)cnc2c1-c1cccc(C(F)F)c1 [Example 151] | 4.67 | 31.6 nM | < 1 µg/mL | – | –
CC(C)c1c(C(=O)N[C@H]2CCc3ccccc32)cnc2c(-c3cncc(F)c3)c(C(F)(F)F)nn12 [Example 155] | 4.25 | 3160 nM | < 10 µg/mL | – | –
CC(C)c1c(C(=O)N[C@H]2CCc3ccccc32)cnc2c(-c3cncc(Cl)c3)c(C(F)(F)F)nn12 [Example 156] | 4.7 | 631 nM | < 10 µg/mL | – | –
CC(C)c1c(C(=O)N[C@H]2CCc3ccccc32)cnc2c(-c3cccc(F)c3)c(C(F)(F)F)nn12 [Example 157] | 5.02 | 100 nM | < 10 µg/mL | – | –
CC(C)c1c(C(=O)N[C@H]2CCc3ccccc32)cnc2c(-c3ccccc3F)c(C(F)(F)F)nn12 [Example 158] | 4.76 | 158 nM | < 10 µg/mL | – | –
CC(C)c1c(C(=O)N[C@H]2CCOc3ccccc32)cnc2c(-c3cccc(F)c3F)c(Cl)nn12 [Example 281, 2-Chloro-N—((S)-chroman-4-yl)-3-(2,3-difluorophenyl)-7-isopropylpyrazolo[1,5-a]pyrimidine-6-carboxamide] | – | 5.01 nM | < 0.1 µg/mL | – | –
Cc1nn2c(N3CCOCC3)c(C(=O)N[C@H]3CCOc4ccccc43)cnc2c1-c1cccc(C(F)(F)F)c1F [Example 530] | – | – | – | 3.99 | 9.0
Cc1nn2c(NC3CC3)c(C(=O)N[C@H]3CCOc4ccccc43)cnc2c1-c1cc(F)cc(F)c1 [Example 539] | – | – | – | 4.46 | 6.8
Cc1nn2c(N(C)CCS(C)(=O)=O)c(C(=O)N[C@H]3CCOc4ccccc43)cnc2c1-c1cc(Cl)cc(Cl)c1 [Example 541] | – | – | – | 3.29 | 8.0
Cc1nn2c(NC3CC3)c(C(=O)N[C@H]3CCOc4ccccc43)cnc2c1-c1cc(Cl)cc(Cl)c1 [Example 542] | – | – | – | 5.59 | 6.5
Cc1nn2c(NC3CC3)c(C(=O)N[C@H]3CCOc4ccccc43)cnc2c1-c1cccc(Cl)c1Cl [Example 546] | – | – | – | 4.32 | 8.2
Cc1nn2c(C3CC3)c(C(=O)N[C@H]3CCOc4ccccc43)cnc2c1-c1cc(F)cc(F)c1F [Example 557] | 3.72 | 2 nM | – | – | –
